From patent publication US8232101B2, “Identification of antigenic peptides from multiple myeloma cells” (Janssen Pharmaceutica N.V., priority 2009, dated 2012)

Key:
[1] = target: T1, HLA-A2 molecules in T2 cells (Homo sapiens, UniProt P04439, D140Y/D185E/D98H/E176V/E277Q/G131W/G231S/I119V/I121R/I166T/I218V/L300P/L318F/N151K/N90K/P208A/P217A/Q86G/Q94H/R138H/R169H/T345S); test: HLA-A2 Stabilization Assay (peptide binding, T2 cells, flow cytometry); design: key: Strong (S); Median (M); Weak (W); None (N)
T1 construct: HLA-A2 molecules that are synthesized in a transporter associated with antigen processing (TAP)-deficient cell line, T2; host or cells: T2 cells (TAP-deficient human cell line)
Excerpt: The assay for peptide binding to class I major histocompatibility complex (MHC/HLA-A2) molecules is based on the ability of peptides to stabilize MHC class I, HLA-A2 molecules that are synthesized in a transporter associated with antigen processing (TAP)-deficient cell line, T2 (ATCC® Number: CRL-1992). The extent of stabilization of MHC class I molecules is directly related to the binding affinity of the added peptides (Townsend et al., Cell. 1990 Jul. 27; 62(2):285-95; Andersen et al., Tissue Antigens. 1999 August; 54(2):185-90).
For the assay, T2 cells were plated in 96-well V-bottom plates, 100 ul/well RPMI media, at a density of 1×10^6 cells/ml, with final peptide concentrations of 200 uM, 20 uM, 2 uM, 200 nM, 20 nM, 2 nM, and no peptide as negative control. The cells with peptides were incubated for 18 hours at 26° C., 5% CO2. After 18 hours, the plates were transferred to 37° C., 5% CO2 and incubated for an additional 3 hours. The cells in plate were washed once with FACS buffer (PBS, 2.5% FCS, 1% NaN3) and then stained by adding 1 ul/well FITC-labeled mouse anti-human HLA-A2 antibody (BD Pharmingen, Cat. No. 551285), 1 ul/well PI, and then incubating at 4° C. for 30 minutes. After staining, cells were resuspended in 200 ul of FACS buffer and transferred from 96-well plates to racks of 96 microtubes. Samples were run on a FACScan flow cytometer and the data were analysed by using CellQuest software.
A peptide of Hepatitis B Core protein (HBC) was used as a positive control. The Hepatitis B Core peptide is a potent HLA-A2.1 epitope and consists of residue numbers 18-27 of the core sequence, amino acids […] (SEQ ID NO:73) (Zhang et al. Immunology. 2007, 121(1):105-12).

[2] = tested on: T2 cells loaded with individual peptides; test: 51Cr Release Assay for activity of CTL generated with peptide-loaded Drosophila aAPC; assay type: cell-based, human; details: for CTL Activities None: number of donors that elicited no activity over total number of donors; for CTL Activities None / CTL Activities Weak / CTL Activities Strong: T2 targets loaded with individual peptide; for CTL Activities Weak: number of donors that elicited Weak activity over total number of donors; for Induction of CTL in two normal donors: Donor 1 and Donor 2, FIG. 3 and FIG. 4; for CTL Activities Strong: number of donors that elicited Strong activity over total number of donors
Protocol: Drosophila aAPC were generated from Schneider S2 cells (S2 cells), which were originally established in 1969 from several hundred Oregon-R (wild type) Drosophila melanogaster (Oregon-R) embryos (American Type Culture Collection (ATCC) CRL-1963) according to published procedures (Schneider, J. Embryol. Exp. Morph. 1972 Vol 27, pp. 353-365), and deposited in the ATCC(CRL10974). S2 cells are grown in commercial Schneider's Drosophila medium supplemented with 10% heat-inactivated fetal bovine serum. In order to generate aAPCs, human complementary DNAs (cDNAs) for HLA-A2.1, B7.1, LFA-3, ICAM-1 and CD70, were individually inserted into the pRmHa-3 vector and S2 cells were transfected using the calcium phosphate precipitation method with a mixture of HLA-A2.1, B7.1, LFA-3, ICAM-1 and CD70 plasmid DNAs (for aAPC clone 1120) and the phshneo plasmid. (see U.S. Pat. No. 6,225,042 regarding construction and use of pRMHa plasmid vectors). The human cDNAs were prepared using standard techniques by reverse transcription-PCR using primers derived from the published sequences for HLA-A2.1 from K562 cells, B7.1 from K562 cells, LFA-3 from HL60 cells, ICAM-1 from K562 cells, and CD70 from HLA-A2.1+LCL cells. K562 cells are a human erythroleukemic cell line, HL60 cells are a promyelocytic leukemia human cell line, and HLA-A2.1+LCL cells are an Epstein-Barr virus (EBV)-transformed lymphoblastoid cell line (LCL). Stably transfected cells were selected by culturing in Schneider's medium containing geneticin. Prior to scale up of the cells, expression of the transfected genes is induced by the addition of CuSO4. The level of expression is assessed by flow cytometry using anti-HLA-A2.1, anti-B7.1, anti-LFA-3, anti-ICAM-1 and CD70 antibodies. For efficient in vitro activation of the CD8+ lymphocytes, greater than 30% of the Drosophila cells must express the HLA-A2.1 molecule. The Drosophila cells regularly express each of the molecules at levels between 70-90%. Drosophila aAPC were washed and then incubated at RT for 4 hours with 10 μM of different combinations of mixed peptides or individual peptides (See e.g. U.S. Pat. Nos. 6,225,042, 6,355,479, 6,362,001 and 6,790,662; U.S. Patent Application Publication Nos. 2009/0017000 and 2009/0004142; and International Publication No. WO2007/103009). Purified human CD8+ T cells from HLA-A2 positive donors were then incubated with peptide-loaded Drosophila APC at 37° C., 5% CO2, for 5 days. Human IL-2 (20 U/ml, R&D Systems) and IL-7 (30 U/ml, R&D Systems) were added at day 5 and the activated CD8+ T cells (CTL) were re-stimulated twice, at day 7 and day 15, with non-CD8 adherent cells in a total peripheral blood mononuclear cell (PBMC) preparation from the same donor in the presence of peptides.
A number of different CTL were generated using CD8+ T cells from different donors and different combinations of mixed peptides, including combinations that contained only one peptide. For example, 24 selected peptides were mixed or used individually to create different combinations of peptide mixtures (PM) or individual peptides (P5 and P14) and produce peptide-loaded Drosophila APC. The resulting peptide-loaded Drosophila APC were incubated with CD8+ T cells from 2 different donors (Donor 1 and Donor 2) to produce 11 different batches of CTL (Donor 1: PM1, PM2, PM3, PM4, and P14; Donor 2: PM1, PM2, PM3, PM4, P5, and P14) (Table 3).
CTL (Effector) activity was measured with a standard chromium (^51Cr) release assay, with T2 cells (Target) loaded with individual peptides and also with a number of tumor cell lines as target cells (Brunner et al., Immunology. 1968 February; 14(2):181-96). The highest Effector (E) Target (T) ratio (E/T) was 50:1, with 1:5 serial dilutions of CTL (Effector) used to produce a dose response. Before the assay, Target cells (T2 cells at 3×10^6 cells/100 ul in 1×PBS with 4% FCS) were labeled by adding 100 ul of ^51Cr (Perkin Elmer) and incubating at 37° C. for 1 hour. […]

[3] = truncated versions of P3, P13, P14

Substance | HLA-A2 Binding [1, 3] | CTL Activities None [2] | other results
DLPGITRV (listed as Homo sapiens) [Peptide P14-3] | N |  | 
SLVLNLLE (listed as Homo sapiens) [Peptide P3-4] | N |  | 
VDLPGMT (listed as Homo sapiens) [Peptide P13-14] | N |  | 
VDLPGMTKV (listed as Homo sapiens) [Peptide P13-2] | N |  | 
TLIDLP (listed as Homo sapiens) [Peptide P14-10] | N |  | 
HSLDNSLSILR (listed as Homo sapiens) [Peptide P16] |  | 2/2 | 
NLLPKLHVV (listed as Homo sapiens) [Peptide P9] |  | 2/2 | 
TLVDLPGMTK (listed as Homo sapiens) [Peptide P13-6] | N |  | 
LLYQGPHNTL (listed as Homo sapiens) [Peptide P12] |  | 2/3 | CTL Activities Weak [2]: 1/3
TLVDLPGMT (listed as Homo sapiens) [Peptide P13-7] | N |  | 
KLLEPVLLL (listed as Homo sapiens) [Peptide P6] |  | 2/3 | CTL Activities Weak [2]: 1/3
DLPGMTK (listed as Homo sapiens) [Peptide P13-15] | N |  | 
DLPGITR (listed as Homo sapiens) [Peptide P14-17] | N |  | 
FLASESLLKGAL (listed as Homo sapiens) [Peptide P23] |  | 1/2 | Induction of CTL in two normal donors [2]: induced CTL; CTL Activities Strong [2]: 1/2
LIDLPGIT (listed as Homo sapiens) [Peptide P14-13] | N |  | 
LVLNLLEL (listed as Homo sapiens) [Peptide P3-1] | N |  | 
ALNEEAGRLLL (listed as Homo sapiens) [Peptide P15] |  | 1/9 | Induction of CTL in two normal donors [2]: induced CTL; CTL Activities Strong [2]: 3/9; CTL Activities Weak [2]: 5/9
SLVLNLL (listed as Homo sapiens) [Peptide P3-5] | N |  | 
FLLPHPGLQV (listed as Homo sapiens) [Peptide P10] |  | 1/2 | Induction of CTL in two normal donors [2]: induced CTL; CTL Activities Strong [2]: 1/2
VLNLLEL (listed as Homo sapiens) [Peptide P3-2] | N |  | 
VDLPGMTK (listed as Homo sapiens) [Peptide P13-12] | N |  | 
LPGMTKV (listed as Homo sapiens) [Peptide P13-4] | N |  | 

Substance | HLA-A2 Binding [1, 3] | CTL Activities None [2] | other results
LNLLEL (listed as Homo sapiens) [Peptide P3-3] | N |  | 
LLNMPPAHLK (listed as Homo sapiens) [Peptide P11] |  |  | CTL Activities Strong [2]: 1/2; CTL Activities Weak [2]: 1/2
SLVLNL (listed as Homo sapiens) [Peptide P3-6] | N |  | 
PGMTKV (listed as Homo sapiens) [Peptide P13-5] | N |  | 
LLIDDKGTIKL (listed as Homo sapiens) [Peptide P20] |  | 2/3 | CTL Activities Weak [2]: 1/3
FMLQTYGQQL (listed as Homo sapiens) [Peptide P14-18] |  |  | HLA-A2 Binding ([1]; computer predicted peptides): N
LIDLPGITRV (listed as Homo sapiens) [Peptide P14-1] | N |  | 
TLVDLPG (listed as Homo sapiens) [Peptide P13-9] | N |  | 
TLIDLPG (listed as Homo sapiens) [Peptide P14-9] | N |  | 
LSLDSSLSSLL (listed as Homo sapiens) [Peptide P17] |  | 2/10 | Induction of CTL in two normal donors [2]: induced CTL; CTL Activities Strong [2]: 4/10; CTL Activities Weak [2]: 4/10
LVDLPGMT (listed as Homo sapiens) [Peptide P13-11] | N |  | 
YLLPAIVHI (listed as Homo sapiens) [Peptide P8] |  | 3/3 | 
TLIDLPGI (listed as Homo sapiens) [Peptide P14-8] | N |  | 
LLLDVAYGAVQA (listed as Homo sapiens) [Peptide P22] |  | 1/2 | CTL Activities Strong [2]: 1/2
LPGITRV (listed as Homo sapiens) [Peptide P14-4] | N |  | 
IDLPGITRV (listed as Homo sapiens) [Peptide P14-2] | N |  | 
KNPVLLKIL (listed as Homo sapiens) [Peptide P7] |  | 2/3 | CTL Activities Weak [2]: 1/3
VLIPKLPQL (listed as Homo sapiens) [Peptide P5] |  | 2/3 | Induction of CTL in two normal donors [2]: induced CTL; CTL Activities Weak [2]: 1/3
RSLFLLYAL (listed as Homo sapiens) [Peptide P4] |  |  | CTL Activities Weak [2]: 1/1
LLGPRLVLA (listed as Homo sapiens) [Peptide P1] |  | 6/10 | Induction of CTL in two normal donors [2]: induced CTL; CTL Activities Strong [2]: 2/10; CTL Activities Weak [2]: 2/10
LLLDVPTAAVQA (listed as Homo sapiens) [Peptide P21] |  | 2/3 | CTL Activities Strong [2]: 1/3
